In the assay the target is WT HIV-1 protease (Human immunodeficiency virus type 1 group M subtype B (isolate HXB2) (HIV-1), UniProt P04585). In words: Assay for inhibition of microbial expressed HIV protease (Procedure A, peptide substrate, HPLC fluorescence detection). Conditions: WT HIV-1 protease 10 pM, substrate 400 micromolar, pH 5.5, 30 min preincubation, 1 hour at 30° C.; read-out: Enzyme inhibition IC50. The format is biochemical. How it is done:
The inhibition of WT HIV-1 protease was studied using the reaction of the protease (expressed in Eschericia coli) with a peptide substrate [Val-Ser-Gln-Asn-(betanaphthyl)Ala-Pro-Ile-Val (SEQ ID NO:1)]. Compounds were tested using Procedure A. In Procedure A, the test compound was first preincubated with the enzyme in assay buffer (50 mM sodium acetate, pH 5.5, 100 mM NaCl, and 0.1% BSA) for 30 minutes at room temperature. Substrate was then added to 400 micromolar in a total volume of 80 microliters containing 10 picomolar HIV-1 protease and the reaction was incubated for 1 hour at 30° C. The reaction was quenched with the addition of 120 microliters of 10% phosphoric acid. The product formation was determined after separation of product and substrate on a Zorbax Eclipse XDB-C18 column (Agilent Technologies, Santa Clara, Calif.) connected to an Agilent 1100 high performance liquid chromatography system with fluorescence detection (excitation 270 nanometer and emission 330 nanometer).
Usually IC50 stands for the point on the concentration scale where inhibition reaches its midpoint. In the case of `COC(=O)N[C@H](C(=O)NCc1ccc([C@@H](CO)N(CC(C)C)S(=O)(=O)c2ccc(N)cc2)s1)C(c1ccccc1)c1ccccc1` [Example 10, N-({5-[(1R)-1-{[(4-aminophenyl)sulfonyl](2-methylpropyl)amino}-2-hydroxyethyl]thiophen-2-yl}methyl)-Nα-(methoxycarbonyl)-β-phenyl-L-phenylalaninamide], the IC50 worked out at 2.6 nM.

Consider `COC(=O)N[C@H](C(=O)NCc1ccc([C@@H](CO)N(CC2CC(F)(F)C2)S(=O)(=O)c2cccc(Cc3ccccn3)c2)s1)C(c1ccccc1)c1ccccc1` [Example 42], for which the IC50 was found to be 110 nM.

For `COC(=O)N[C@H](C(=O)N[C@H](c1ccc([C@@H](CO)N(CCC(C)(C)C)S(=O)(=O)c2ccn3ccnc3c2)s1)C(F)(F)F)C(c1ccccc1)c1ccccc1` [Example 51, N-[(1S)-1-(5-{(1R)-1-[(3,3-dimethylbutyl)(imidazo[1,2-c]pyridin-7-ylsulfonyl)amino]-2-hydroxyethyl}thiophen-2-yl)-2,2,2-trifluoroethyl]-Nα-(methoxycarbonyl)-β-phenyl-L-phenylalaninamide], the IC50 is 17.5 nM.

On to `COC(=O)N[C@H](C(=O)N[C@H](c1ccc([C@@H](CO)N(C(C)C)S(=O)(=O)c2ccc(CO)cc2)s1)C(F)(F)F)C(c1ccccc1)c1ccccc1` [Example 65, Nα-(methoxycarbonyl)-β-phenyl-N-[(1S)-2,2,2-trifluoro-1-(5-{(1R)-2-hydroxy-1-[{[4-(hydroxymethyl)phenyl]sulfonyl}(propan-2-yl)amino]ethyl}thiophen-2-yl)ethyl]-L-phenylalaninamide], for which the IC50 stood at 0.18 nM.

Take `COC(=O)N[C@H](C(=O)NCc1ccc(C(CO)N(CCC(C)C)S(=O)(=O)c2ccccc2)s1)C(c1ccccc1)c1ccccc1` (some centres unmarked) [Example 4]: the IC50 amounted to 8.81 nM.

On to `COC(=O)N[C@H](C(=O)NCc1ccc(C(CO)N(Cc2cnn(S(=O)(=O)N(C)C)c2)S(=O)(=O)c2ccc3scnc3c2)s1)C(c1ccccc1)c1ccccc1` (some centres unmarked) [Example 30], for which the IC50 is 5.13 nM.

For `COC(=O)N[C@H](C(=O)N[C@H](c1ccc([C@@H](CO)N(CCC(C)(C)C)S(=O)(=O)c2cc(F)c(CO)c(F)c2)s1)C(F)(F)F)C(c1ccccc1)c1ccccc1` [Example 52, N-[(1S)-1-(5-{(1R)-1-[{[3,5-difluoro-4-(hydroxymethyl)phenyl]sulfonyl}(3,3-dimethylbutyl)amino]-2-hydroxyethyl}thiophen-2-yl)-2,2,2-trifluoroethyl]-Nα-(methoxycarbonyl)-β-phenyl-L-phenylalaninamide], the half-inhibitory concentration (IC50) worked out at 2 nM.

`COC(=O)N[C@H](C(=O)N[C@H](c1ccc([C@@H](CO)N(CCC(C)(C)C)S(=O)(=O)c2cn3ccnc3cn2)s1)C(F)(F)F)C(c1ccccc1)c1ccccc1` [Example 122, N-[(1S)-1-(5-{(1R)-1-[(3,3-dimethylbutyl)(imidazo[1,2-a]pyrazin-6-ylsulfonyl)amino]-2-hydroxyethyl}thiophen-2-yl)-2,2,2-trifluoroethyl]-Nα-(methoxycarbonyl)-β-phenyl-L-phenylalaninamide]: the IC50 worked out at 5.78 nM.

Consider `COC(=O)N[C@H](C(=O)N[C@H](c1ccc([C@@H](CO)N(CCC(C)(C)C)S(=O)(=O)c2ccc(-n3ncnn3)cc2)s1)C(F)(F)F)C(c1ccccc1)c1ccccc1` [Example 110], for which the concentration for half-maximal inhibition (IC50) is 10.5 nM.

Consider `COC(=O)N[C@H](C(=O)N[C@H](c1ccc([C@@H](CO)N(CCC(C)C)S(=O)(=O)c2ccc(N)cc2)s1)C(F)(F)F)C(c1ccccc1)c1ccccc1` [Example 83, N-[(1S)-1-{5-[(1R)-1-{[(4-aminophenyl)sulfonyl](3-methylbutyl)amino}-2-hydroxyethyl]thiophen-2-yl}-2,2,2-trifluoroethyl]-Nα-(methoxycarbonyl)-β-phenyl-L-phenylalaninamide], for which the IC50 came to 0.3 nM.

Take `COC(=O)N[C@H](C(=O)N[C@H](c1ccc([C@@H](CO)N(CCC2CC2)S(=O)(=O)c2ccc(N)cc2)s1)C(F)(F)F)C(c1ccccc1)c1ccccc1` [Example 86]: the IC50 was 0.34 nM.

Regarding `COC(=O)N[C@H](C(=O)N[C@H](c1ccc([C@@H](CO)N(CCC(C)(C)C)S(=O)(=O)c2ccc3cn[nH]c3c2)s1)C(F)(F)F)C(c1ccccc1)c1ccccc1` [Example 102, N-[(1S)-1-(5-{(1R)-1-[(3,3-dimethylbutyl)(1H-indazol-6-ylsulfonyl)amino]-2-hydroxyethyl}thiophen-2-yl)-2,2,2-trifluoroethyl]-Nα-(methoxycarbonyl)-β-phenyl-L-phenylalaninamide], the concentration for half-maximal inhibition (IC50) is 0.63 nM.

Turning to `COC(=O)N[C@H](C(=O)NCc1ccc([C@@H](CO)N(CC(C)C)S(=O)(=O)c2cccc(CC(C)(C)O)c2)s1)C(c1ccccc1)c1ccccc1` [Example 14], the half-inhibitory concentration (IC50) was determined as 4.1 nM.

Turning to `COC(=O)N[C@H](C(=O)N[C@@H](c1ccc([C@@H](CO)N(CC(C)C)S(=O)(=O)c2ccc(N)cc2)s1)C(F)(F)F)C(c1ccccc1)c1ccccc1` [Example 61, N-[(1R)-1-{5-[(1R)-1-{[(4-aminophenyl)sulfonyl](2-methylpropyl)amino}-2-hydroxyethyl]thiophen-2-yl}-2,2,2-trifluoroethyl]-Nα-(methoxycarbonyl)-β-phenyl-L-phenylalaninamide], the concentration for half-maximal inhibition (IC50) turned out to be 23 nM.

`COC(=O)N[C@H](C(=O)N[C@H](c1ccc([C@@H](CO)N(CCC(C)(C)C)S(=O)(=O)c2ccc(-n3nccn3)cc2)s1)C(F)(F)F)C(c1ccccc1)c1ccccc1` [Example 112]: the IC50 was 73.5 nM.

As to `CCC(NC(=O)[C@@H](NC(=O)OC)C(c1ccccc1)c1ccccc1)c1ccc(C(CO)N(CCC(C)C)S(=O)(=O)c2ccc(CO)cc2)s1` (some centres unmarked) [Example 9], the concentration for half-maximal inhibition (IC50) amounted to 0.63 nM.

In the case of `COC(=O)N[C@H](C(=O)NC(C)c1ccc(C(CO)N(CCC(C)C)S(=O)(=O)c2ccccc2)s1)C(c1ccccc1)c1ccccc1` (stereo partly drawn) [Example 7, N-[1-(5-{2-hydroxy-1-[(3-methylbutyl)(phenylsulfonyl)amino]ethyl}thiophen-2-yl)ethyl]-Nα-(methoxycarbonyl)-β-phenyl-L-phenylalaninamide], the concentration for half-maximal inhibition (IC50) stood at 3.5 nM.

As for `COC(=O)N[C@H](C(=O)NCc1ccc([C@@H](CO)N(CC(C)C)S(=O)(=O)c2ccc3scnc3c2)s1)C(c1ccccc1)c1ccccc1` [Example 22], the half-maximal inhibitory concentration (IC50) was found to be 6.1 nM.

With `COC(=O)N[C@H](C(=O)N[C@H](c1ccc([C@@H](CO)N(C(C)C)S(=O)(=O)c2ccc(N)s2)s1)C(F)(F)F)C(c1ccccc1)c1ccccc1` [Example 50, N-[(1S)-1-{5-[(1R)-1-{[(5-aminothiophen-2-yl)sulfonyl](propan-2-yl)amino}-2-hydroxyethyl]thiophen-2-yl}-2,2,2-trifluoroethyl]-Nα-(methoxycarbonyl)-β-phenyl-L-phenylalaninamide], the half-inhibitory concentration (IC50) was determined as 121 nM.

For `COC(=O)N[C@H](C(=O)N[C@H](c1ccc([C@@H](CO)N(CCC(C)(C)C)S(=O)(=O)c2cc3ccccc3[nH]2)s1)C(F)(F)F)C(c1ccccc1)c1ccccc1` [Example 55, N-[(1S)-1-(5-{(1R)-1-[(3,3-dimethylbutyl)(1H-indol-2-ylsulfonyl)amino]-2-hydroxyethyl}thiophen-2-yl)-2,2,2-trifluoroethyl]-Nα-(methoxycarbonyl)-β-phenyl-L-phenylalaninamide], the concentration for half-maximal inhibition (IC50) is 45.8 nM.

As for `COC(=O)Nc1ccc(S(=O)(=O)N(CCC(C)(C)C)[C@H](CO)c2ccc([C@@H](NC(=O)[C@@H](NC(=O)OC)C(c3ccccc3)c3ccccc3)C(F)(F)F)s2)cc1` [Example 70, N-[(1S)-1-(5-{1-[(3,3-dimethylbutyl)({4-[(methoxycarbonyl)amino]phenyl}sulfonyl)amino]-2-hydroxyethyl}thiophen-2-yl)-2,2,2-trifluoroethyl]-Nα-(methoxycarbonyl)-β-phenyl-L-phenylalaninamide], the concentration for half-maximal inhibition (IC50) amounted to 3.16 nM.

In the case of `COC(=O)N[C@H](C(=O)N[C@H](c1ccc([C@@H](CO)N(CCC(C)(C)C)S(=O)(=O)c2cn3ccnc3cn2)s1)C(F)(F)F)C(c1ccccc1)c1ccccc1` [Example 99, N-[(1S)-1-(5-{(1R)-1-[(3,3-dimethylbutyl)(imidazo[1,2-a]pyrazin-6-ylsulfonyl)amino]-2-hydroxyethyl}thiophen-2-yl)-2,2,2-trifluoroethyl]-Nα-(methoxycarbonyl)-β-phenyl-L-phenylalaninamide], the IC50 came out at 3.39 nM.

In the case of `COC(=O)N[C@H](C(=O)NCc1ccc(C(CO)N(C(C)C)S(=O)(=O)c2ccc3scnc3c2)s1)C(c1ccccc1)c1ccccc1` (some centres unmarked) [Example 21], the IC50 came out at 62.4 nM.

For the compound `COC(=O)N[C@H](C(=O)N[C@H](c1ccc([C@@H](CO)NS(=O)(=O)c2ccc(N)cc2)s1)C(F)(F)F)C(c1ccccc1)c1ccccc1` [Example 87, N-[(1S)-1-{5-[(1R)-1-{[(4-aminophenyl)sulfonyl]amino}-2-hydroxyethyl]thiophen-2-yl}-2,2,2-trifluoroethyl]-Nα-(methoxycarbonyl)-β-phenyl-L-phenylalaninamide], the IC50 turned out to be 194 nM.

For the compound `COC(=O)N[C@H](C(=O)N[C@H](c1ccc([C@@H](CO)N(CCC(C)(C)C)S(=O)(=O)c2ccc(N)cc2F)s1)C(F)(F)F)C(c1ccccc1)c1ccccc1` [Example 98, N-[(1S)-1-{5-[(1R)-1-{[(4-amino-2-fluorophenyl)sulfonyl](3,3-dimethylbutyl)amino}-2-hydroxyethyl]thiophen-2-yl}-2,2,2-trifluoroethyl]-Nα-(methoxycarbonyl)-β-phenyl-L-phenylalaninamide], the IC50 came to 0.44 nM.

On to `COC(=O)N[C@H](C(=O)NCc1ccc([C@@H](CO)N(CC2CC(F)(F)C2)S(=O)(=O)c2ccc3cc[nH]c(=O)c3c2)s1)C(c1ccccc1)c1ccccc1` [Example 16], for which the IC50 amounted to 0.44 nM.
